Measurements taken from ChEMBL document CHEMBL1201862, “PubChem BioAssay data set” (2004).
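How tested: cells in 96-well plates exposed to compound for 48 hours at five concentrations. GI50 = concentration required for 50% inhibition of growth.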 The source made the active and inactive calls. No stated cut-off is given here; in the data, active = GI50 up to about 1.1 µM and inactive = higher.

Legend:
Assay in all cases: NCI anticancer screen, dose series, 48 h
BT-549 = system: BT-549
HT-29 = system: HT-29
HOP-92 = system: HOP-92
LOX IMVI = system: LOX IMVI
T47D = system: T47D
OVCAR-4 = system: OVCAR-4
U-251 = system: U-251
Hs-578T = system: Hs-578T
HOP-62 = system: HOP-62
MDA-N = system: MDA-N
Malme-3M = system: Malme-3M
A498 = system: A498
TK-10 = system: TK-10
OVCAR-8 = system: OVCAR-8
HL-60 = system: HL-60
EKVX = system: EKVX
UO-31 = system: UO-31
CCRF-CEM = system: CCRF-CEM
SK-OV-3 = system: SK-OV-3
SK-MEL-2 = system: SK-MEL-2

SMILES	GI50 (BT-549)	GI50 (HT-29)	GI50 (HOP-92)	GI50 (LOX IMVI)	GI50 (T47D)	GI50 (OVCAR-4)	GI50 (U-251)	GI50 (Hs-578T)	GI50 (HOP-62)	GI50 (MDA-N)	GI50 (Malme-3M)	GI50 (A498)	GI50 (TK-10)	GI50 (OVCAR-8)	GI50 (HL-60)	GI50 (EKVX)	GI50 (UO-31)	GI50 (CCRF-CEM)	GI50 (SK-OV-3)	GI50 (SK-MEL-2)
COc1ccc2[nH]c(S(=O)(=O)N3CC(CCl)c4ccc(N)cc43)cc2c1 (configuration not stated)	6.55 µM (inactive)	1.65 µM (inactive)	13.7 µM (inactive)	< 0.0229 µM (active)	34.8 µM (inactive)	2.16 µM (inactive)	0.4 µM (active)	0.0953 µM (active)	0.475 µM (active)	< 0.01 µM (active)	0.0984 µM (active)	11.2 µM (inactive)	20.6 µM (inactive)	0.266 µM (active)	< 0.01 µM (active)	1.85 µM (inactive)	0.0403 µM (active)	0.362 µM (active)	0.208 µM (active)	
CO[C@@]12C[C@@H](C)[C@]34O[C@H]3C[C@]3(C)O[C@]43CC1=C(C)C(=O)O2	> 100 µM (inactive)	> 100 µM (inactive)	> 100 µM (inactive)	> 100 µM (inactive)	> 100 µM (inactive)	> 100 µM (inactive)	> 100 µM (inactive)	> 100 µM (inactive)		> 100 µM (inactive)	> 100 µM (inactive)	> 100 µM (inactive)	> 100 µM (inactive)	> 100 µM (inactive)		> 100 µM (inactive)	> 100 µM (inactive)		> 100 µM (inactive)	> 100 µM (inactive)
C=CCOC1(CC=C)C(=O)OC2C(O)COC21O (configuration not stated)	> 100 µM (inactive)	> 100 µM (inactive)		> 100 µM (inactive)	> 100 µM (inactive)	> 100 µM (inactive)	> 100 µM (inactive)	> 100 µM (inactive)	> 100 µM (inactive)	> 100 µM (inactive)	> 100 µM (inactive)	> 100 µM (inactive)	> 100 µM (inactive)	> 100 µM (inactive)	> 100 µM (inactive)	> 100 µM (inactive)	> 100 µM (inactive)	> 100 µM (inactive)	> 100 µM (inactive)	> 100 µM (inactive)
N#CC1=C(N2CCOCC2)CCC1	> 100 µM (inactive)	> 100 µM (inactive)		> 100 µM (inactive)	> 100 µM (inactive)	> 100 µM (inactive)	> 100 µM (inactive)	> 100 µM (inactive)	> 100 µM (inactive)	52.6 µM (inactive)	> 100 µM (inactive)	> 100 µM (inactive)	> 100 µM (inactive)	> 100 µM (inactive)	> 100 µM (inactive)	> 100 µM (inactive)	> 100 µM (inactive)	> 100 µM (inactive)	> 100 µM (inactive)	> 100 µM (inactive)
Cc1cc(S(=O)(=O)Nc2nc(N)n(C)n2)c(S)cc1Cl	> 10 µM (inactive)	> 10 µM (inactive)		> 10 µM (inactive)	> 10 µM (inactive)	> 10 µM (inactive)	> 10 µM (inactive)	> 10 µM (inactive)	> 10 µM (inactive)	> 10 µM (inactive)	> 10 µM (inactive)	> 10 µM (inactive)	> 10 µM (inactive)	> 10 µM (inactive)	> 10 µM (inactive)	> 10 µM (inactive)	> 10 µM (inactive)	> 10 µM (inactive)	> 10 µM (inactive)	> 10 µM (inactive)
CC(=O)n1nc(-c2[nH]c(C)c(-c3nn(C(C)=O)c(=S)o3)c2C)oc1=S	> 100 µM (inactive)	> 100 µM (inactive)	> 100 µM (inactive)	82.8 µM (inactive)	> 100 µM (inactive)	> 100 µM (inactive)	> 100 µM (inactive)	> 100 µM (inactive)	> 100 µM (inactive)	> 100 µM (inactive)	30.1 µM (inactive)	> 100 µM (inactive)	> 100 µM (inactive)	> 100 µM (inactive)		> 100 µM (inactive)	> 100 µM (inactive)	12.9 µM (inactive)	> 100 µM (inactive)	> 62.4 µM (inactive)
